Experimental data as given in ChEMBL document CHEMBL4732255, “Evaluation of the antiproliferative activity of 106 marine microbial metabolites against human lung cancer cells and potential antiproliferative mechanism of purpuride G” (Bioorg Med Chem Lett, 2021).
pIC50: −log10 of the molar value. Active and inactive are the calls of the source. The rule behind the calls is not given here.

Tests used:
NCI-H157 [1] = assay: Inhibition of glycolysis in human NCI-H157 cells assessed as downregulation of HK2 protein expression at 2 to 5 uM incubated for 24 hrs by western blot analysis; type: functional, cell-based; settings: dose 2-5 µM
NCI-H460 = assay: Antiproliferative activity against human NCI-H460 cells assessed as reduction in cell viability incubated for 72 hrs by sulforhodamine B assay; type: functional, cell-based; settings: NCI-H460, 72 h
NCI-H157 [2] = assay: Induction of apoptosis in human NCI-H157 cells assessed as induction of PARP cleavage at 2 to 5 uM incubated for 24 hrs by western blot analysis; type: functional, cell-based; settings: dose 2-5 µM
A549 [3] = assay: Antiproliferative activity against human A549 cells assessed as cell viability at 50 uM measured after 72 hrs by sulforhodamine B assay; type: functional; settings: read-out: Activity
PC-9 [4] = assay: Cell cycle arrest in human PC-9 cells assessed as accumulation at G2/M phase at 5 uM measured after 48 hrs by propidium iodide staining based flow cytometry (reference value: 15.09 to 16.04%); type: functional
PC-9 [5] = assay: Induction of apoptosis in human PC-9 cells assessed as early apoptotic cells at 5 uM measured after 48 hrs by Annexin V-FITC/propidium iodide staining based flow cytometry (reference value: 2.55 to 2.8%); type: functional
NCI-H157 [6] = assay: Antiproliferative activity against human NCI-H157 cells assessed as reduction in cell viability measured after 72 hrs by sulforhodamine B assay; type: functional, cell-based; settings: NCI-H157, 72 h
NCI-H157 [7] = assay: Inhibition of glycolysis in human NCI-H157 cells assessed as reduction in lactate release at 5 uM incubated for 24 hrs; type: functional, cell-based
NCI-H157 [8] = assay: Antiproliferative activity against human NCI-H157 cells assessed as cell viability at 50 uM measured after 72 hrs by sulforhodamine B assay; type: functional; settings: read-out: Activity
NCI-H157 [9] = assay: Induction of apoptosis in human NCI-H157 cells assessed as upregulation of Bax protein expression at 2 to 5 uM incubated for 24 hrs by western blot analysis; type: functional, cell-based; settings: dose 2-5 µM
NCI-H157 [10] = assay: Induction of apoptosis in human NCI-H157 cells assessed as downregulation of Bcl-2 protein expression at 2 to 5 uM incubated for 24 hrs by western blot analysis; type: functional, cell-based; settings: dose 2-5 µM
PC-9 [11] = assay: Inhibition of glycolysis in human PC-9 cells assessed as downregulation of HK2 protein expression at 2 to 5 uM incubated for 24 hrs by western blot analysis; type: functional, cell-based; settings: dose 2-5 µM
PC-9 [12] = assay: Inhibition of glycolysis in human PC-9 cells assessed as reduction in lactate release at 5 uM incubated for 24 hrs; type: functional, cell-based
U-251 = assay: Antiproliferative activity against human U-251 cells assessed as reduction in cell viability incubated for 72 hrs by sulforhodamine B assay; type: functional, cell-based; settings: U-251, 72 h
PC-9 [13] = assay: Antiproliferative activity against human PC-9 cells assessed as reduction in cell viability incubated for 72 hrs by sulforhodamine B assay; type: functional, cell-based; settings: PC-9, 72 h
NCI-H157 [14] = assay: Inhibition of glycolysis in human NCI-H157 cells assessed as downregulation of PKM2 protein expression at 2 to 5 uM incubated for 24 hrs by western blot analysis; type: functional, cell-based; settings: dose 2-5 µM
PC-9 [15] = assay: Induction of apoptosis in human PC-9 cells assessed as induction of PARP cleavage at 2 to 5 uM incubated for 24 hrs by western blot analysis; type: functional, cell-based; settings: dose 2-5 µM
NCI-H157 [16] = assay: Induction of apoptosis in human NCI-H157 cells assessed as late apoptotic cells at 5 uM measured after 48 hrs by Annexin V-FITC/propidium iodide staining based flow cytometry (reference value: 1.95 to 2.1%); type: functional
PC-9 [17] = assay: Inhibition of glycolysis in human PC-9 cells assessed as reduction in extracellular glucose consumption at 5 uM incubated for 24 hrs; type: functional, cell-based
PC-9 [18] = assay: Cell cycle arrest in human PC-9 cells assessed as accumulation at G0/G1 phase at 5 uM measured after 48 hrs by propidium iodide staining based flow cytometry (reference value: 30.67 to 31.96%); type: functional
NCI-H157 [19] = assay: Inhibition of glycolysis in human NCI-H157 cells assessed as reduction in extracellular glucose consumption at 5 uM incubated for 24 hrs; type: functional, cell-based
PC-9 [20] = assay: Induction of apoptosis in human PC-9 cells assessed as necrotic cells at 5 uM measured after 48 hrs by Annexin V-FITC/propidium iodide staining based flow cytometry (reference value: 0.8%); type: functional
PC-9 [21] = assay: Induction of apoptosis in human PC-9 cells assessed as viable cells at 5 uM measured after 48 hrs by Annexin V-FITC/propidium iodide staining based flow cytometry (reference value: 90.9%); type: functional; settings: read-out: Activity
NCI-H157 [22] = assay: Induction of apoptosis in human NCI-H157 cells assessed as viable cells at 5 uM measured after 48 hrs by Annexin V-FITC/propidium iodide staining based flow cytometry (reference value: 94.3%); type: functional; settings: read-out: Activity
PC-9 [23] = assay: Induction of apoptosis in human PC-9 cells assessed as downregulation of Bcl-2 protein expression at 2 to 5 uM incubated for 24 hrs by western blot analysis; type: functional, cell-based; settings: dose 2-5 µM
PC-9 [24] = assay: Induction of apoptosis in human PC-9 cells assessed as late apoptotic cells at 5 uM measured after 48 hrs by Annexin V-FITC/propidium iodide staining based flow cytometry (reference value: 5.5 to 6.9%); type: functional
NCI-H157 [25] = assay: Induction of apoptosis in human NCI-H157 cells assessed as necrotic cells at 5 uM measured after 48 hrs by Annexin V-FITC/propidium iodide staining based flow cytometry (reference value: 2.5%); type: functional
NCI-H1703 = assay: Antiproliferative activity against human NCI-H1703 cells assessed as reduction in cell viability incubated for 72 hrs by sulforhodamine B assay; type: functional, cell-based; settings: NCI-H1703, 72 h
NCI-H157 [26] = assay: Cell cycle arrest in human NCI-H157 cells assessed as accumulation at G2/M phase at 5 uM measured after 48 hrs by propidium iodide staining based flow cytometry (reference value: 16.62 to 16.94%); type: functional
NCI-H157 [27] = assay: Cell cycle arrest in human NCI-H157 cells assessed as accumulation at S phase at 5 uM measured after 48 hrs by propidium iodide staining based flow cytometry (reference value: 26.33 to 26.84%); type: functional
NCI-H1299 = assay: Antiproliferative activity against human NCI-H1299 cells assessed as reduction in cell viability incubated for 72 hrs by sulforhodamine B assay; type: functional, cell-based; settings: NCI-H1299, 72 h
NCI-H157 [28] = assay: Cell cycle arrest in human NCI-H157 cells assessed as accumulation at G0/G1 phase at 5 uM measured after 48 hrs by propidium iodide staining based flow cytometry (reference value: 56.53 to 56.73%); type: functional
BEAS-2B = assay: Cytotoxicity against human BEAS-2B cells assessed as reduction in cell viability incubated for 72 hrs by sulforhodamine B assay; type: cell-based
U-87 MG = assay: Antiproliferative activity against human U-87MG cells assessed as reduction in cell viability incubated for 72 hrs by sulforhodamine B assay; type: functional, cell-based, U-87MG ATCC
A549 [29] = assay: Antiproliferative activity against human A549 cells assessed as reduction in cell viability measured after 72 hrs by sulforhodamine B assay; type: functional, cell-based; settings: A549, 72 h
PC-9 [30] = assay: Inhibition of glycolysis in human PC-9 cells assessed as downregulation of PKM2 protein expression at 2 to 5 uM incubated for 24 hrs by western blot analysis; type: functional, cell-based; settings: dose 2-5 µM
PC-9 [31] = assay: Cell cycle arrest in human PC-9 cells assessed as accumulation at S phase at 5 uM measured after 48 hrs by propidium iodide staining based flow cytometry (reference value: 52.95 to 53.28%); type: functional
PC-9 [32] = assay: Induction of apoptosis in human PC-9 cells assessed as upregulation of Bax protein expression at 2 to 5 uM incubated for 24 hrs by western blot analysis; type: functional, cell-based; settings: dose 2-5 µM
NCI-H157 [33] = assay: Induction of apoptosis in human NCI-H157 cells assessed as early apoptotic cells at 5 uM measured after 48 hrs by Annexin V-FITC/propidium iodide staining based flow cytometry (reference value: 1 to 1.1%); type: functional

**Q.** How did the inhibition (NCI-H157 [1]) turn out when `CC1(C)CC[C@H](O)[C@@]2(C)[C@H]1CC=C1C(=O)OC[C@@]12O` was run?
**A.** Active

**Q.** What about the pIC50 (NCI-H460) of the same compound?
**A.** 5.64

**Q.** And the Activity (NCI-H157 [2])?
**A.** Active

**Q.** What about the viability at 50 µM (A549 [3]) of the same compound?
**A.** < 50%

**Q.** And the Activity (PC-9 [4])?
**A.** 20.29%

**Q.** And the Activity (PC-9 [5])?
**A.** 5.7%

**Q.** And the pIC50 (NCI-H157 [6])?
**A.** 5.54

**Q.** And the inhibition (NCI-H157 [7])?
**A.** Active

**Q.** What about the viability at 50 µM (NCI-H157 [8]) of the same compound?
**A.** < 50%

**Q.** And the Activity (NCI-H157 [9])?
**A.** Active

**Q.** And the Activity (NCI-H157 [10])?
**A.** Active

**Q.** And the inhibition (PC-9 [11])?
**A.** Active

**Q.** And the inhibition (PC-9 [12])?
**A.** Active

**Q.** What about the pIC50 (U-251) of the same compound?
**A.** 5.35

**Q.** And the pIC50 (PC-9 [13])?
**A.** 5.68

**Q.** What about the inhibition (NCI-H157 [14]) of the same compound?
**A.** Active

**Q.** What about the Activity (PC-9 [15]) of the same compound?
**A.** Active

**Q.** And the Activity (NCI-H157 [16])?
**A.** 18.15%

**Q.** What about the inhibition (PC-9 [17]) of the same compound?
**A.** Active

**Q.** What about the Activity (PC-9 [18]) of the same compound?
**A.** 55.77%

**Q.** What about the inhibition (NCI-H157 [19]) of the same compound?
**A.** Active

**Q.** And the Activity (PC-9 [20])?
**A.** 23.4%

**Q.** And the viability at 5 µM (PC-9 [21])?
**A.** 38.1%

**Q.** What about the viability at 5 µM (NCI-H157 [22]) of the same compound?
**A.** 70.7%

**Q.** And the Activity (PC-9 [23])?
**A.** Active

**Q.** What about the Activity (PC-9 [24]) of the same compound?
**A.** 32.1%

**Q.** What about the Activity (NCI-H157 [25]) of the same compound?
**A.** 4.9%

**Q.** What about the pIC50 (NCI-H1703) of the same compound?
**A.** 5.44

**Q.** What about the Activity (NCI-H157 [26]) of the same compound?
**A.** 15.21%

**Q.** What about the Activity (NCI-H157 [27]) of the same compound?
**A.** 36.68%

**Q.** What about the pIC50 (NCI-H1299) of the same compound?
**A.** 5.57

**Q.** What about the Activity (NCI-H157 [28]) of the same compound?
**A.** 47.83%

**Q.** What about the pIC50 (BEAS-2B) of the same compound?
**A.** 5.20

**Q.** What about the pIC50 (U-87 MG) of the same compound?
**A.** 4.98

**Q.** And the pIC50 (A549 [29])?
**A.** 5.48

**Q.** And the inhibition (PC-9 [30])?
**A.** Active

**Q.** What about the Activity (PC-9 [31]) of the same compound?
**A.** 22.97%

**Q.** What about the Activity (PC-9 [32]) of the same compound?
**A.** Active

**Q.** And the Activity (NCI-H157 [33])?
**A.** 6.1%
